Here are results for 74 compounds from patent publication US8163763B2, “Pyrimidine compounds, compositions and methods of use” (Genentech, Inc., priority 2008, dated 2012).

mTOR kinase (purified recombinant mTOR(1360-2549)+GBL), sequence (P42345 1360-2549): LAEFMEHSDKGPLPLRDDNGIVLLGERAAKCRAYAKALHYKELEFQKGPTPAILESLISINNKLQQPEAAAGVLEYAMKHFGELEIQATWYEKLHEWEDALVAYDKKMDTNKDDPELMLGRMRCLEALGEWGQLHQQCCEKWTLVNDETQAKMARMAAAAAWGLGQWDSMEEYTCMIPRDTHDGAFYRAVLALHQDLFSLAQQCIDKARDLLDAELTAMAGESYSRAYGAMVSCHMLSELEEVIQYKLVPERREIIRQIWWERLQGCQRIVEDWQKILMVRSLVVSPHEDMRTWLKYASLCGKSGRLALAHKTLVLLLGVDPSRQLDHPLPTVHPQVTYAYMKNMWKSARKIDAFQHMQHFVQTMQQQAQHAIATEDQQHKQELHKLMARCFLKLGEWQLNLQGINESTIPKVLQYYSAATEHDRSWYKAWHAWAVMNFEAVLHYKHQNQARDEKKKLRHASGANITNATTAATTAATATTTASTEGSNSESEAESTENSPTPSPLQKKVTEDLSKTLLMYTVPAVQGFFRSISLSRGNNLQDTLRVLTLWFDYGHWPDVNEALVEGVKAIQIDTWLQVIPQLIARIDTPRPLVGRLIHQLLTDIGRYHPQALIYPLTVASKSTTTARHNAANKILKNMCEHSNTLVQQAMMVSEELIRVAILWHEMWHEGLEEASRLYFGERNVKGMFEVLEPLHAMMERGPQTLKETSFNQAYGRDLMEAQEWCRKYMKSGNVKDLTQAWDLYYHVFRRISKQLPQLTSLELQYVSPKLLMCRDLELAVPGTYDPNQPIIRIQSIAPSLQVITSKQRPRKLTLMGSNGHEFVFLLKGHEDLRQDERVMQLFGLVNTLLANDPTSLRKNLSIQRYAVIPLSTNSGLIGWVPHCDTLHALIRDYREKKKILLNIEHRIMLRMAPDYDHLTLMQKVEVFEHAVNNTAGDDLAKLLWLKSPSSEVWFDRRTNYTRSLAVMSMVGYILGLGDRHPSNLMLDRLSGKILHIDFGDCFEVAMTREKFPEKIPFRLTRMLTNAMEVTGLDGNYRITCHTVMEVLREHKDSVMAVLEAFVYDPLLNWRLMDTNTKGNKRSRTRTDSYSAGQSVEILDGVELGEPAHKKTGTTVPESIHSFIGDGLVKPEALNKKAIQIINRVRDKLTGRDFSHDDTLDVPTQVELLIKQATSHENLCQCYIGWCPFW
mTOR kinase (purified recombinant mTOR(1360-2549)+GBL), sequence (Q9BVC4 whole entry partner): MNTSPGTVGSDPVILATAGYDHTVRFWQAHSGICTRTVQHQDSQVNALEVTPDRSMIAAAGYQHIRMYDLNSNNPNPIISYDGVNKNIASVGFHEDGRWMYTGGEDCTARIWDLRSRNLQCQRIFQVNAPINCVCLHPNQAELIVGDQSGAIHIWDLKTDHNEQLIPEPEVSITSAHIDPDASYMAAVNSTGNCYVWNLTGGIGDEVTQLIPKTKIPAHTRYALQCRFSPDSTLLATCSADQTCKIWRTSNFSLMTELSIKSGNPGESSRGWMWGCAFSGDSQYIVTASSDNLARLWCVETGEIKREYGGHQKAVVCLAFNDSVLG

One assay concerns the target mTOR kinase (purified recombinant mTOR(1360-2549)+GBL) (Homo sapiens, UniProt P42345). Nature of the assay: In vitro mTOR kinase assay (TR-FRET). Format: biochemical. As to conditions: class of Ki in the mTOR kinase assay; read-out: mTOR Activity Level. From the text:
a. In vitro mTOR Kinase Assay
The reaction is stopped by an addition of a Terbium-labeled phospho-specific antibody, e.g., Tb-labeled anti-p4E-BP1 T37/T46, (Invitrogen, product #PR8835A), EDTA, and TR-FRET buffer solution (Invitrogen, Product #PR3756B). Product formation is detected by way of time-resolved fluorescence resonance energy transfer (TR-FRET), which occurs when the phosphorylated substrate and labeled antibody are in close proximity due to phospho-specific binding. Enzymatic activity is measured as an increase in TR-FRET signal using a Perkin Elmer Envision plate reader.
Compound activity is tested in 10 point dose curves starting at the highest final concentration of 10 uM. They are serially diluted in 100% DMSO prior to further dilution with assay buffer. […] 8 μL of solution containing 2 nM Tb-anti-p4E-BP1 antibody & 10 mM EDTA diluted TR-FRET buffer is then added and incubated for 30 minutes to stop the reaction. The plate is scanned with the Envision plate reader. Ki values are calculated in Assay Explorer using the Morrison ATP-competitive tight binding equation for Ki apparent determination.
In the case of `CCNC(=O)Nc1ccc(-c2nc3c(c(N4CCOCC4)n2)CN(c2ccnc(N)n2)C3)cc1`, the Ki is < 100 nM.

`CCNC(=O)Nc1ccc(-c2nc3c(c(N4CCOCC4)n2)CN(C(=O)OCc2ccccc2)C3)cc1`: the Ki was < 100 nM. On the same count and under the same terms, the result for `CCNC(=O)Nc1ccc(-c2nc3c(c(N4CCOCC4)n2)CN(C(=O)OCC)C3)cc1` reads < 100 nM.

Take `CCNC(=O)Nc1ccc(-c2nc3c(c(N4CCOCC4)n2)CN(c2ccnc(N)n2)CC3)cc1`: the Ki is < 100 nM. On to `CCNC(=O)Nc1ccc(-c2nc3c(c(N4CCOCC4)n2)CN(C(=O)c2ccccn2)CC3)cc1`, for which the Ki was < 100 nM. Still for that read-out and setting: the result for `CCNC(=O)Nc1ccc(-c2nc3c(c(N4CCOCC4)n2)CCN(c2ncccn2)C3)cc1` reads < 100 nM. On the same count and under the same terms, the result for `CCNC(=O)Nc1ccc(-c2nc3c(c(N4CCOCC4)n2)CCN(c2ccnc(N)n2)C3)cc1` reads < 100 nM. Same read-out and setting: the result for `CCNC(=O)Nc1ccc(-c2nc3c(c(N4CCOCC4)n2)CN(Cc2ccc(O)cc2)C3)cc1` reads < 100 nM.

Regarding `CCNC(=O)Nc1ccc(-c2nc3c(c(N4CCOCC4)n2)CN(C2CCN(C(C)=O)CC2)C3)cc1`, the Ki is < 100 nM. As for `CCNC(=O)Nc1ccc(-c2nc3c(c(N4CCCOCC4)n2)CN(C(=O)OC(C)(C)C)C3)cc1`, the Ki was < 100 nM. Still for that read-out and setting: the result for `CCNC(=O)Nc1ccc(-c2nc3c(c(N4CCCOCC4)n2)CN(S(=O)(=O)c2ccccc2)C3)cc1` reads < 100 nM; that for `CCNC(=O)Nc1ccc(-c2nc3c(c(N4CCCOCC4)n2)CN(S(C)(=O)=O)C3)cc1`, < 100 nM. The same measure, in the same setting: the result for `CCNC(=O)Nc1ccc(-c2nc3c(c(N4CCCOCC4)n2)CN(c2ncccn2)C3)cc1` reads < 100 nM; that for `CCNC(=O)Nc1ccc(-c2nc3c(c(N4CCOCC4)n2)CCN(C(=O)OCc2ccccc2)C3)cc1`, < 100 nM. Same read-out and setting: the result for `CCNC(=O)Nc1ccc(-c2nc3c(c(N4CCOCC4)n2)CCN(C(=O)c2ccccn2)C3)cc1` reads < 100 nM; that for `CCNC(=O)Nc1ccc(-c2nc3c(c(N4CCOCC4)n2)CCN(C(=O)c2cccnc2)C3)cc1`, < 100 nM; that for `CCNC(=O)Nc1ccc(-c2nc3c(c(N4CCOCC4)n2)CCN(C(=O)c2ccncc2)C3)cc1`, < 100 nM.

Regarding `CCNC(=O)Nc1ccc(-c2nc3c(c(N4CCOCC4)n2)CCN(C2CCN(C)CC2)C3)cc1`, the Ki is < 100 nM.

On to `CCNC(=O)Nc1ccc(-c2nc3c(c(N4CCCOCC4)n2)CCN(C(C)=O)C3)cc1`, for which the Ki was < 100 nM. Same read-out and setting: the result for `CCNC(=O)Nc1ccc(-c2nc3c(c(N4CCCOCC4)n2)CCN(C(=O)OCc2ccccc2)C3)cc1` reads < 100 nM; that for `CCNC(=O)Nc1ccc(-c2nc3c(c(N4CCCOCC4)n2)CCN(c2ncccn2)C3)cc1`, < 100 nM.

Take `CCNC(=O)Nc1ccc(-c2nc3c(c(N4CCCOCC4)n2)CN(C2CCN(C(C)=O)CC2)C3)cc1`: the Ki is < 100 nM.

`CC(=O)Nc1ccc(-c2nc3c(c(N4CCOCC4)n2)CN(c2ncccn2)C3)cc1`: the Ki lay in the range of 100 to 5000 nM. For the compound `CC(=O)Nc1cccc(-c2nc3c(c(N4CCOCC4)n2)CN(c2ncccn2)C3)c1`, the Ki was in the range of 100 to 5000 nM.

As for `CN(C)C(=O)Nc1ccc(-c2nc3c(c(N4CCOCC4)n2)CN(c2ncccn2)C3)cc1`, the Ki lay within 100 to 5000 nM. On the same count and under the same terms, the result for `CS(=O)(=O)Nc1ccc(-c2nc3c(c(N4CCOCC4)n2)CN(c2ncccn2)C3)cc1` reads 100 to 5000 nM; that for `NC(=O)c1ccc(-c2nc3c(c(N4CCOCC4)n2)CN(c2ncccn2)C3)cc1`, 100 to 5000 nM; that for `CCNC(=O)Nc1ccc(-c2nc3c(c(N4CCOC[C@@H]4C)n2)CNCC3)cc1`, < 100 nM. Still for that read-out and setting: the result for `CCNC(=O)Nc1ccc(-c2nc3c(c(N4CCOC[C@@H]4C)n2)CN(c2ccnc(N)n2)CC3)cc1` reads < 100 nM.

Consider `CCNC(=O)Nc1ccc(-c2nc3c(c(N4CCOC[C@@H]4C)n2)CCN(C(=O)OC(C)(C)C)C3)cc1`, for which the Ki is < 100 nM. Same read-out and setting: the result for `CCNC(=O)Nc1ccc(-c2nc3c(c(N4CCOC[C@@H]4C)n2)CCNC3)cc1` reads < 100 nM; that for `Cc1nnc(-c2ccc(-c3nc4c(c(N5CCOCC5)n3)CCN(c3ncccn3)C4)cc2)o1`, 100 to 5000 nM.

For the compound `c1cnc(N2CCc3c(nc(-c4ccc(-n5cccn5)cc4)nc3N3CCOCC3)C2)nc1`, the Ki is 100 to 5000 nM. Same read-out and setting: the result for `O=c1[nH]c2ccc(-c3nc4c(c(N5CCOCC5)n3)CCN(c3ncccn3)C4)cc2[nH]1` reads 100 to 5000 nM; that for `CCCNC(=O)Nc1ccc(-c2nc3c(c(N4CCOCC4)n2)CCN(c2ncccn2)C3)cc1`, 100 to 5000 nM; that for `CC(C)NC(=O)Nc1ccc(-c2nc3c(c(N4CCOCC4)n2)CCN(c2ncccn2)C3)cc1`, 100 to 5000 nM. With `O=C(NCCO)Nc1ccc(-c2nc3c(c(N4CCOCC4)n2)CCN(c2ncccn2)C3)cc1`, the Ki lay in the range of 100 to 5000 nM.

Turning to `O=C(NCC1CC1)Nc1ccc(-c2nc3c(c(N4CCOCC4)n2)CCN(c2ncccn2)C3)cc1`, the Ki was < 100 nM. Still for that read-out and setting: the result for `CCNC(=O)Nc1ccc(-c2nc3c(c(N4CCOC[C@@H]4C)n2)CCN(c2ccnc(N)n2)C3)cc1` reads < 100 nM; that for `CCNC(=O)Nc1ccc(-c2nc3c(c(N4CCOCC4)n2)CCN(C(=O)c2cnco2)C3)cc1`, < 100 nM. Still for that read-out and setting: the result for `CCNC(=O)Nc1ccc(-c2nc3c(c(N4CCOCC4)n2)CCN(C(=O)c2cocn2)C3)cc1` reads < 100 nM. The same measure, in the same setting: the result for `CCNC(=O)Nc1ccc(-c2nc3c(c(N4CCOCC4)n2)CCN(C(=O)c2ccnn2C)C3)cc1` reads < 100 nM; that for `CCNC(=O)Nc1ccc(-c2nc3c(c(N4CCOCC4)n2)CCN(C(=O)[C@H](C)O)C3)cc1`, < 100 nM; that for `CCNC(=O)Nc1ccc(-c2nc3c(c(N4CCOCC4)n2)CCN(C(=O)c2c(C)oc4ncn(C)c(=O)c24)C3)cc1`, < 100 nM.

Consider `CCNC(=O)Nc1ccc(-c2nc3c(c(N4CCOCC4)n2)CCN(C(=O)N2CCOCC2)C3)cc1`, for which the Ki was < 100 nM. The same measure, in the same setting: the result for `O=C(Nc1ccc(-c2nc3c(c(N4CCOCC4)n2)CCN(c2ncccn2)C3)cc1)NC1CC1` reads < 100 nM; that for `O=C(Nc1ccc(-c2nc3c(c(N4CCOCC4)n2)CCN(c2ncccn2)C3)cc1)NC1CCC1`, < 100 nM.

In the case of `CCNC(=O)Nc1ccc(-c2nc3c(c(N4CCOCC4)n2)CNCC3)cc1`, the Ki is < 100 nM. `CCNC(=O)Nc1ccc(-c2nc3c(c(N4CCOCC4)n2)CN(C(=O)c2cccnc2)CC3)cc1`: the Ki was < 100 nM.

Regarding `CCNC(=O)Nc1ccc(-c2nc3c(c(N4CCOCC4)n2)CN(C(=O)c2ccncc2)CC3)cc1`, the Ki was < 100 nM. Still for that read-out and setting: the result for `Nc1ccc(-c2nc3c(c(N4CCOCC4)n2)CCN(c2ncccn2)C3)cc1` reads 100 to 5000 nM; that for `COc1ccc(CN2Cc3c(nc(-c4cnc(N)nc4)nc3N3CCOCC3)C2=O)cc1`, 100 to 5000 nM; that for `CS(=O)(=O)Nc1ccc(-c2nc3c(c(N4CCOCC4)n2)CN(Cc2ccccc2)C3=O)cc1`, 100 to 5000 nM. Same read-out and setting: the result for `CNC(=O)Nc1ccc(-c2nc3c(c(N4CCOCC4)n2)CN(Cc2ccc(OC)cc2)C3=O)cc1` reads < 100 nM; that for `CC(=O)Nc1ccc(-c2nc3c(c(N4CCOCC4)n2)CN(Cc2ccccc2)C3=O)cc1`, 100 to 5000 nM; that for `CCNC(=O)Nc1ccc(-c2nc3c(c(N4CCOCC4)n2)CN(C(=O)c2ccccc2Cl)CC3)cc1`, < 100 nM.

With `CCNC(=O)Nc1ccc(-c2nc3c(c(N4CCOCC4)n2)CN(C(=O)c2ccc(Cl)cc2)CC3)cc1`, the Ki was < 100 nM. Still for that read-out and setting: the result for `CCNC(=O)Nc1ccc(-c2nc3c(c(N4CCOCC4)n2)CN(C(=O)/C=C/c2ccccc2)CC3)cc1` reads < 100 nM; that for `CC(C)(C)OC(=O)N1Cc2nc(-c3cnc(N)nc3)nc(N3CCOCC3)c2C1`, 100 to 5000 nM; that for `CCNC(=O)Nc1ccc(-c2nc3c(c(C4CCOCC4)n2)CN(C(=O)OC(C)(C)C)C3)cc1`, 100 to 5000 nM. Same read-out and setting: the result for `CCNC(=O)Nc1ccc(-c2nc3c(c(C4=CCOCC4)n2)CCN(c2ncccn2)C3)cc1` reads 100 to 5000 nM; that for `CCNC(=O)Nc1ccc(-c2nc3c(c(C4CCOCC4)n2)CCN(c2ncccn2)C3)cc1`, 100 to 5000 nM. The same measure, in the same setting: the result for `CCNC(=O)Nc1ccc(-c2nc3c(c(-c4cccnc4)n2)CCN(Cc2ccccc2)C3)cc1` reads 100 to 5000 nM; that for `CCNC(=O)Nc1ccc(-c2nc3c(c(N4CCOCC4)n2)CN(Cc2ccccc2)C3)cc1`, < 100 nM; that for `CCNC(=O)Nc1ccc(-c2nc3c(c(N4CCOCC4)n2)CN(Cc2cccc(O)c2)C3)cc1` [drawing 553], < 100 nM.

Regarding `CCNC(=O)Nc1ccc(-c2nc3c(c(N4CCCOCC4)n2)CN(C(=O)OCc2ccccc2)C3)cc1` [drawing 567], the Ki is < 100 nM. Same read-out and setting: the result for `O=C(Nc1ccc(-c2nc3c(c(N4CCOCC4)n2)CN(c2ncccn2)C3)cc1)NC1CCCC1` [drawing 572] reads < 100 nM; that for `c1cnc(N2CCc3c(nc(-c4ccc5[nH]ncc5c4)nc3N3CCOCC3)C2)nc1` [drawing 585], 100 to 5000 nM; that for `CCNC(=O)Nc1ccc(-c2nc3c(c(N4CCOCC4)n2)CN(C(=O)Cc2ccccc2)CC3)cc1` [drawing 603], < 100 nM.

The assay is the same for the next values; noted with them: mTOR kinase assay of Example 496; read-out: Ki.
As to `CC(=O)Nc1ccc(-c2nc3c(c(N4CCCOCC4)n2)CN(Cc2ccccc2)C3=O)cc1`, the Ki came to 252 nM. The same measure, in the same setting: the result for `CCNC(=O)Nc1ccc(-c2nc3c(c(N4CCOCC4)n2)CCN2C(=O)N(CC)CC[C@@H]32)cc1` reads 5 nM; that for `CCNC(=O)Nc1ccc(-c2nc3c(c(N4CCOC[C@@H]4C)n2)CCN(c2nc(C)cc(C)n2)C3)cc1`, 4 nM. On to `C[C@H]1COCCN1c1nc(-c2ccc(NC(=O)NCC(F)F)cc2)nc2c1CN(C(=O)c1nccs1)CC2`, for which the Ki turned out to be 32 nM. For `CC(C)(C)OC(=O)N1Cc2nc(-c3cnc(N)nc3)nc(C3C=COCC3)c2C1` (centres unmarked), the Ki was 753 nM.
